Values quoted from earlier work, collected in patent publication US10751294B1, “Development of an optimized avanafil-loaded invasomal transdermal film” (King Abdulaziz University, priority 2019, dated 2020).
Where two headings read alike, the source gives them in different places.

Tests used:
[1] = not given; remark: listed apart in the source
[2] = in water, methanol, and ethanol at 25° C.
[3] = not given; remark: listed apart in the source

| pKa (acidic) | pKa (basic) | log P [1] | solubility [2] | drug permeation enhanced (fold) ([3]; from invasomes) | drug permeation enhanced (fold) ([3]; from transfersomes) | SMILES |
| --- | --- | --- | --- | --- | --- | --- |
| 11.84 | 5.89 | 1.84 | < 1 mg/mL |  |  | COc1ccc(CN=c2[nH]c(N3CCC[C@H]3CO)ncc2C(=O)NCc2ncccn2)cc1Cl [AVA, Avanafil] |
|  |  |  |  | 7.2 fold | 1.8 fold | O=C(O)CN(CC(=O)O)Cc1cc2c(cc1O)Oc1cc(O)c(CN(CC(=O)O)CC(=O)O)cc1C21OC(=O)c2ccccc21 [calcein] |
